Test results: ChEMBL document CHEMBL3045091, “Synthesis and antimicrobial activities of some new 5-((3-(aryl)-1-phenyl-1H-pyrazol-4-yl)methylene)-3-phenylthiazolidine-2,4-diones” (2012)
Values after ≈ are worked out from the molar mass of the structure shown. Active and inactive are the calls of the source. The calls are words filed in the database; no cut-off is given here.

Legend:
Staphylococcus aureus [1] = test: Antibacterial activity against Staphylococcus aureus MTCC 96 at 4 mg/ml after 24 hr by agar well diffusion method; format: functional; settings: MTCC 96, 24 h, read-out: DIZ
Staphylococcus aureus [2] = test: Antibacterial activity against Staphylococcus aureus MTCC 96 after 24 hr by macro dilution tube method; format: functional; settings: MTCC 96, 24 h
Bacillus subtilis [3] = test: Antibacterial activity against Bacillus subtilis MTCC 121 after 24 hr by macro dilution tube method; format: functional; settings: MTCC 121, 24 h
Bacillus subtilis [4] = test: Antibacterial activity against Bacillus subtilis MTCC 121 at 4 mg/ml after 24 hr by agar well diffusion method; format: functional; settings: MTCC 121, 24 h, read-out: DIZ
Pseudomonas aeruginosa [5] = test: microbe, parasite or virus in culture; settings: MTCC 741, 24 h, read-out: DIZ
Description: (§1) Antibacterial activity against Pseudomonas aeruginosa MTCC 741 at 4 mg/ml after 24 hr by agar well diffusion method

Aspergillus flavus = test: Antifungal activity against Aspergillus flavus after 7 days by poisoned food technique; format: functional
Aspergillus niger = test: Antifungal activity against Aspergillus niger after 7 days by poisoned food technique; format: functional
Escherichia coli = test: Antibacterial activity against Escherichia coli MTCC 1652 at 4 mg/ml after 24 hr by agar well diffusion method; format: functional, organism-based
Pseudomonas aeruginosa [6] = settings: MTCC 741, 4 mg/ml
Description: as §1

Row | SMILES | zone of inhibition at 4000 µg/mL (Staphylococcus aureus [1]) [mm] | MIC (Staphylococcus aureus [2]) [µg/mL] | MIC (Bacillus subtilis [3]) [µg/mL] | zone of inhibition at 4000 µg/mL (Bacillus subtilis [4]) [mm] | zone of inhibition at 4000 µg/mL (Pseudomonas aeruginosa [5]) [mm] | growth inhibition (GI) (Aspergillus flavus) [%] | growth inhibition (GI) (Aspergillus niger) [%] | diameter of the inhibition zone (DIZ) (Escherichia coli) | DIZ (Pseudomonas aeruginosa [6])
1 | O=C(O)c1cn(C2CC2)c2cc(N3CCNCC3)c(F)cc2c1=O [CIPROFLOXACIN] | 26 | 5 (≈ 15.1 µM) | 5 (≈ 15.1 µM) | 24 | 22 | – | – | – | –
2 | O=C1S/C(=C\c2cn(-c3ccccc3)nc2-c2ccccc2)C(=O)N1c1ccccc1 | 18.6 | 128 (≈ 302 µM) | 64 (≈ 151 µM) | 19.3 | – | 50 | 55.5 | inactive | inactive
3 | Cc1ccc(-c2nn(-c3ccccc3)cc2/C=C2\SC(=O)N(c3ccccc3)C2=O)cc1 | 18.3 | 128 (≈ 293 µM) | 64 (≈ 146 µM) | 19.6 | – | 50 | 44.4 | inactive | inactive
4 | O=C1S/C(=C\c2cn(-c3ccccc3)nc2-c2cccs2)C(=O)N1c1ccccc1 | 22.3 | 32 (≈ 74.5 µM) | 32 (≈ 74.5 µM) | 21.6 | – | 33.3 | 50 | inactive | inactive
5 | COc1ccc(-c2nn(-c3ccccc3)cc2/C=C2\SC(=O)N(c3ccccc3)C2=O)cc1 | 18.6 | 128 (≈ 282 µM) | 128 (≈ 282 µM) | 16.6 | – | 66.6 | 50 | inactive | inactive
6 | OC(Cn1cncn1)(Cn1cncn1)c1ccc(F)cc1F [FLUCONAZOLE] | – | – | – | – | – | 77.7 | 81.1 | – | –
7 | O=C1S/C(=C\c2cn(-c3ccccc3)nc2-c2ccc(Cl)cc2)C(=O)N1c1ccccc1 | 20.6 | 64 (≈ 140 µM) | 128 (≈ 280 µM) | 18.3 | – | 61.1 | 55.5 | inactive | inactive
8 | O=C1S/C(=C\c2cn(-c3ccccc3)nc2-c2ccc(Br)cc2)C(=O)N1c1ccccc1 | 21.6 | 32 (≈ 63.7 µM) | 32 (≈ 63.7 µM) | 20.6 | – | 55.5 | 38.8 | inactive | inactive
9 | O=C1S/C(=C\c2cn(-c3ccccc3)nc2-c2ccc(O)cc2)C(=O)N1c1ccccc1 | 20.3 | 64 (≈ 146 µM) | 128 (≈ 291 µM) | 18.3 | – | 44.4 | 50 | inactive | inactive
10 | O=C1S/C(=C\c2cn(-c3ccccc3)nc2-c2ccc([N+](=O)[O-])cc2)C(=O)N1c1ccccc1 | 20.6 | 64 (≈ 137 µM) | 128 (≈ 273 µM) | 18.3 | – | 61.1 | 50 | inactive | inactive
11 | O=C1S/C(=C\c2cn(-c3ccccc3)nc2-c2ccc(F)cc2)C(=O)N1c1ccccc1 | 19.3 | 128 (≈ 290 µM) | 32 (≈ 72.5 µM) | 20.6 | – | 55.5 | 55.5 | inactive | inactive
